Experimental findings from ChEMBL document CHEMBL1157012, “Neural computational prediction of oral drug absorption based on CODES 2D descriptors” (Eur J Med Chem, 2010) are described below.

A short description of the series: Human intestinal absorption in po dosed human. As to conditions: in vivo.

With `O=C([O-])c1cc(=O)c2c(OCC(O)COc3cccc4oc(C(=O)[O-])cc(=O)c34)cccc2o1.[Na+].[Na+]` [CROMOLYN SODIUM], the Fa is 4%.

`N[C@@H]1CON=C1O` [CYCLOSERINE] registered a Fa of 73%.

For `CO[C@H]1C[C@H](O[C@H]2CC[C@]3(C=O)[C@H]4CC[C@]5(C)[C@@H](C6=CC(=O)OC6)CC[C@]5(O)[C@@H]4CC[C@]3(O)C2)O[C@H](C)[C@H]1O` [CYMARIN], the Fa was found to be 47%.

In turn, `CNCCCN1c2ccccc2CCc2ccccc21` [DESIPRAMINE] came in with a Fa of 100%.

In turn, `C[C@H](N)Cc1ccccc1` [DEXTROAMPHETAMINE] came in with a Fa of 90%.

For `COc1ccc2c3c1O[C@H]1[C@@H](O)CC[C@H]4[C@@H](C2)N(C)CC[C@@]341` [DIHYDROCODEINE], the Fa worked out at 88%.

The compound `CN(CCCCCCN(C)C(=O)Oc1ccc[n+](C)c1)C(=O)Oc1ccc[n+](C)c1.[Br-].[Br-]` [DISTIGMINE BROMIDE] gave a Fa of 8%.

The compound `COc1cccc2c1C(=O)c1c(O)c3c(c(O)c1C2=O)C[C@@](O)(C(=O)CO)C[C@@H]3O[C@H]1C[C@H](N)[C@H](O)[C@H](C)O1` [DOXORUBICIN] showed a Fa of 12%.

For the compound `NCCCC(N)(C(=O)O)C(F)F` (stereo not drawn) [EFLORNITHINE], the Fa came out at 55%.

Turning to `C[C@H](N[C@@H](CCc1ccccc1)C(=O)O)C(=O)N1CCC[C@H]1C(=O)O` [ENALAPRILAT ANHYDROUS], the Fa came out at 25%.

`C#C[C@]1(O)CC[C@H]2[C@@H]3CCc4cc(O)ccc4[C@H]3CC[C@@]21C` [ETHINYL ESTRADIOL] had a Fa of 100%.

In turn, `COc1cc([C@@H]2c3cc4c(cc3[C@@H](O[C@@H]3O[C@@H]5CO[C@@H](C)O[C@H]5[C@H](O)[C@H]3O)[C@H]3COC(=O)[C@H]23)OCO4)cc(OC)c1O` [ETOPOSIDE] showed a Fa of 50%.

The compound `CC(=O)OCC(CCn1cnc2cnc(N)nc21)COC(C)=O` [FAMCICLOVIR] showed a Fa of 77%.

Turning to `NC(N)=Nc1nc(CSCCC(N)=NS(N)(=O)=O)cs1` [FAMOTIDINE], the Fa is 28%.

`NC(=O)OCC(COC(N)=O)c1ccccc1` [FELBAMATE] returned a Fa of 90%.

Compound `CCOC(=O)C1=C(C)NC(C)=C(C(=O)OC)C1c1cccc(Cl)c1Cl` (stereo not drawn) [FELODIPINE] yielded a Fa of 88%.

With `O=C(NCC1CCCCN1)c1cc(OCC(F)(F)F)ccc1OCC(F)(F)F` (stereo not drawn) [FLECAINIDE], the Fa amounted to 81%.

In turn, `C[C@@H]1O[C@@H]1P(=O)(O)O` [FOSFOMYCIN] yielded a Fa of 31%.

`O=CN(O)CCCP(=O)(O)O` [FOSMIDOMYCIN] yielded a Fa of 30%.

`NCC1(CC(=O)O)CCCCC1` [GABAPENTIN] had a Fa of 59%.

On to `COc1ccc(CCN(C)CCCC(C#N)(c2cc(OC)c(OC)c(OC)c2)C(C)C)cc1OC` (stereo not drawn) [GALLOPAMIL], for which the Fa came out at 100%.

In turn, `Cc1ccc(S(=O)(=O)NC(=O)NN2CC3CCCC3C2)cc1` (stereo not drawn) [GLICLAZIDE] came in with a Fa of 65%.

Turning to `COc1ccc(Cl)cc1C(=O)NCCc1ccc(S(=O)(=O)NC(=O)NC2CCCCC2)cc1` [GLYBURIDE], the Fa came to 100%.

`NCC(=O)O` [GLYCINE] came in with a Fa of 100%.

In the case of `CN1C2CCCC1CC(NC(=O)c1nn(C)c3ccccc13)C2` (stereo not drawn) [GRANISETRON], the Fa was determined as 100%.

The compound `N=C(N)N/N=C/c1c(Cl)cccc1Cl` [GUANABENZ] came in with a Fa of 80%.

In the case of `N=C(N)NCC1COc2ccccc2O1` (stereo not drawn) [GUANOXAN], the Fa was 50%.

In turn, `NS(=O)(=O)c1cc2c(cc1Cl)NCNS2(=O)=O` [HYDROCHLOROTHIAZIDE] gave a Fa of 69%.

`CN(C)CCCN1c2ccccc2CCc2ccccc21` [IMIPRAMINE] registered a Fa of 100%.

`Nc1cc(-c2ccncc2)c[nH]c1=O` [INAMRINONE] returned a Fa of 93%.

In the case of `CNC(=O)c1c(I)c(NC(C)=O)c(I)c(C(=O)[O-])c1I.[Na+]` [IOTHALAMATE SODIUM], the Fa was 2%.

As to `NNC(=O)c1ccncc1` [ISONIAZID], the Fa is 80%.

For the compound `Cc1cc(NC(=O)C2=C(O)c3ccccc3S(=O)(=O)N2C)no1` [ISOXICAM], the Fa stood at 100%.

For `CC(C(=O)O)c1cccc(C(=O)c2ccccc2)c1` (stereo not drawn) [KETOPROFEN], the Fa came to 92%.

`O=C(c1ccccc1)c1ccc2n1CCC2C(=O)O` (stereo not drawn) [KETOROLAC] registered a Fa of 90%.

Turning to `CC(CCc1ccccc1)NCC(O)c1ccc(O)c(C(N)=O)c1` (stereo not drawn) [LABETALOL], the Fa came to 95%.

On to `OC[C@H]1O[C@@H](O[C@@H]2[C@@H](CO)O[C@](O)(CO)[C@H]2O)[C@H](O)[C@@H](O)[C@H]1O` [LACTULOSE], for which the Fa is 1%.

For `Nc1ccn([C@@H]2CS[C@H](CO)O2)c(=O)n1` [LAMIVUDINE], the Fa stood at 85%.

The compound `Nc1nnc(-c2cccc(Cl)c2Cl)c(N)n1` [LAMOTRIGINE] yielded a Fa of 98%.

Take `Cc1c(OCC(F)(F)F)ccnc1C[S+]([O-])c1nc2ccccc2[nH]1` (stereo not drawn) [LANSOPRAZOLE]: the Fa worked out at 85%.

As to `N[C@@H](Cc1ccc(O)c(O)c1)C(=O)O` [LEVODOPA], the Fa is 86%.

Consider `C#C[C@]1(O)CC[C@H]2[C@@H]3CCC4=CC(=O)CC[C@@H]4[C@H]3CC[C@@]21CC` [LEVONORGESTREL], for which the Fa turned out to be 100%.

`CCC[C@@H]1C[C@@H](C(=O)N[C@@H]([C@H]2O[C@H](SC)[C@H](O)[C@@H](O)[C@H]2O)[C@@H](C)O)N(C)C1` [LINCOMYCIN] gave a Fa of 28%.

In turn, `NCCCC[C@H](N[C@@H](CCc1ccccc1)C(=O)O)C(=O)N1CCC[C@H]1C(=O)O` [LISINOPRIL ANHYDROUS] yielded a Fa of 28%.

As to `N[C@@H](C(=O)N[C@@H]1C(=O)N2C(C(=O)O)=C(Cl)CC[C@H]12)c1ccccc1` [LORACARBEF ANHYDROUS], the Fa is 100%.

Regarding `CN1C(=O)C(O)N=C(c2ccccc2Cl)c2cc(Cl)ccc21` (stereo not drawn) [LORMETAZEPAM], the Fa worked out at 100%.

As for `CN1C(C(=O)Nc2ccccn2)=C(O)c2sc(Cl)cc2S1(=O)=O` [LORNOXICAM], the Fa was 100%.

`OC[C@@H](O)[C@@H](O)[C@H](O)[C@H](O)CO` [MANNITOL] came in with a Fa of 16%.

In the case of `Cc1cnc(NC(=O)C2=C(O)c3ccccc3S(=O)(=O)N2C)s1` [MELOXICAM], the Fa is 90%.

`O=S(=O)([O-])CCS.[Na+]` [MESNA] returned a Fa of 77%.

For the compound `CC(C)NCC(O)c1cc(O)cc(O)c1` (stereo not drawn) [METAPROTERENOL], the Fa was found to be 44%.

Compound `CN(C)C(=N)N=C(N)N` [METFORMIN] returned a Fa of 53%.

`CCC(=O)C(CC(C)N(C)C)(c1ccccc1)c1ccccc1` (stereo not drawn) [METHADONE] came in with a Fa of 80%.

Take `CN(Cc1cnc2nc(N)nc(N)c2n1)c1ccc(C(=O)N[C@@H](CCC(=O)O)C(=O)O)cc1` [METHOTREXATE]: the Fa came out at 70%.

The compound `C[C@](N)(Cc1ccc(O)c(O)c1)C(=O)O` [METHYLDOPA] showed a Fa of 41%.

`C[C@H]1C[C@@H]2[C@H]([C@@H](O)C[C@@]3(C)[C@H]2CC[C@]3(O)C(=O)CO)[C@@]2(C)C=CC(=O)C=C12` [METHYLPREDNISOLONE] yielded a Fa of 82%.

With `Cc1cccc(C)c1OCC(C)N` (stereo not drawn) [MEXILETINE], the Fa came to 100%.

`COCC(=O)O[C@]1(CCN(C)CCCc2nc3ccccc3[nH]2)CCc2cc(F)ccc2[C@@H]1C(C)C` [MIBEFRADIL] gave a Fa of 69%.

With `COP(=O)(OC)OC(c1ccc(Cl)cc1)P(=O)(OC)OC` (stereo not drawn) [MIFOBATE], the Fa turned out to be 81%.

For the compound `Nc1cc(N2CCCCC2)nc(N)[n+]1[O-]` [MINOXIDIL], the Fa amounted to 98%.

`COc1nc(C)nc(Cl)c1N=C1NCCN1` [MOXONIDINE] yielded a Fa of 87%.

With `CC(C)(C)NCC(O)COc1cccc2c1CC(O)C(O)C2` (stereo not drawn) [NADOLOL], the Fa is 57%.

The compound `CCc1nn(CCCN2CCN(c3cccc(Cl)c3)CC2)c(=O)n1CCOc1ccccc1` [NEFAZODONE] came in with a Fa of 100%.

`CC#Cc1cn([C@@H]2O[C@H](CO)[C@@H](O)[C@@H]2O)c(=O)[nH]c1=O` [NETIVUDINE] showed a Fa of 28%.

`O=C(O)c1cccnc1` [NIACIN]: the Fa amounted to 88%.

`COC(=O)C1=C(C)NC(C)=C(C(=O)OCC(C)C)C1c1ccccc1[N+](=O)[O-]` (stereo not drawn) [NISOLDIPINE] yielded a Fa of 89%.

`CCOC(=O)C1=C(C)NC(C)=C(C(=O)OC)C1c1cccc([N+](=O)[O-])c1` (stereo not drawn) [NITRENDIPINE] yielded a Fa of 88%.

In the case of `CNC(=C[N+](=O)[O-])NCCSCc1csc(CN(C)C)n1` [NIZATIDINE], the Fa is 90%.

Consider `CC1COc2c(N3CCN(C)CC3)c(F)cc3c(=O)c(C(=O)O)cn1c23` (stereo not drawn) [OFLOXACIN], for which the Fa amounted to 100%.

Compound `O=C(O)c1cc(/N=N/c2ccc(O)c(C(=O)O)c2)ccc1O` [OLSALAZINE] had a Fa of 24%.

For the compound `Cc1nccn1CC1CCc2c(c3ccccc3n2C)C1=O` (stereo not drawn) [ONDANSETRON], the Fa was found to be 100%.

Turning to `C[C@@H]1O[C@@H](O[C@H]2C[C@@H](O)[C@]3(CO)[C@H]4[C@H](O)C[C@]5(C)[C@@H](C6=CC(=O)OC6)CC[C@]5(O)[C@@H]4CC[C@]3(O)C2)[C@H](O)[C@H](O)[C@H]1O` [OUABAIN], the Fa amounted to 1%.

Consider `O=c1[nH]c2ccccc2n1CCCN1CCN(C(c2ccccc2)c2ccccc2)CC1` [OXATOMIDE], for which the Fa was determined as 100%.

The compound `C=CCOc1ccccc1OCC(O)CNC(C)C` (stereo not drawn) [OXPRENOLOL] showed a Fa of 95%.

Consider `COc1cccc(C(=O)CCN[C@@H](C)[C@H](O)c2ccccc2)c1` [OXYFEDRINE], for which the Fa amounted to 84%.

The compound `CC(C)NCC(O)COc1ccc(CCNC(=O)NC(C)C)cc1` (stereo not drawn) [PAFENOLOL] had a Fa of 29%.

The compound `CCn1cc(C(=O)O)c(=O)c2cc(F)c(N3CCN(C)CC3)cc21` [PEFLOXACIN] came in with a Fa of 100%.

`CC1(C)S[C@@H]2[C@H](NC(=O)Cc3ccccc3)C(=O)N2[C@H]1C(=O)O` [PENICILLIN G] registered a Fa of 30%.

The compound `CC1(C)S[C@@H]2[C@H](NC(=O)COc3ccccc3)C(=O)N2[C@H]1C(=O)O` [PENICILLIN V] had a Fa of 59%.

`CCN(CC)CCC1(c2ccccc2)CCC(=O)NC1=O` (stereo not drawn) [PHENGLUTARIMIDE] registered a Fa of 100%.

`O=C1NC(=O)C(c2ccccc2)(c2ccccc2)N1` [PHENYTOIN]: the Fa was found to be 90%.

For the compound `CC(C)NCC(O)COc1cccc2[nH]ccc12` (stereo not drawn) [PINDOLOL], the Fa stood at 87%.

Regarding `CC(C)(C)NCC(O)c1ccc(O)c(CO)n1` (stereo not drawn) [PIRBUTEROL], the Fa was 60%.
